{"source": "patent US6875743B1", "about": "“Cell adhesion inhibitors” (Biogen, Inc., priority 1996, dated 2005)", "target": "T1, VLA4 (Homo sapiens, UniProt P05556+P13612)", "T1 construct": "endogenous in cells; host or cells: Ramos cells", "T1 sequence (P13612 34-1032)": "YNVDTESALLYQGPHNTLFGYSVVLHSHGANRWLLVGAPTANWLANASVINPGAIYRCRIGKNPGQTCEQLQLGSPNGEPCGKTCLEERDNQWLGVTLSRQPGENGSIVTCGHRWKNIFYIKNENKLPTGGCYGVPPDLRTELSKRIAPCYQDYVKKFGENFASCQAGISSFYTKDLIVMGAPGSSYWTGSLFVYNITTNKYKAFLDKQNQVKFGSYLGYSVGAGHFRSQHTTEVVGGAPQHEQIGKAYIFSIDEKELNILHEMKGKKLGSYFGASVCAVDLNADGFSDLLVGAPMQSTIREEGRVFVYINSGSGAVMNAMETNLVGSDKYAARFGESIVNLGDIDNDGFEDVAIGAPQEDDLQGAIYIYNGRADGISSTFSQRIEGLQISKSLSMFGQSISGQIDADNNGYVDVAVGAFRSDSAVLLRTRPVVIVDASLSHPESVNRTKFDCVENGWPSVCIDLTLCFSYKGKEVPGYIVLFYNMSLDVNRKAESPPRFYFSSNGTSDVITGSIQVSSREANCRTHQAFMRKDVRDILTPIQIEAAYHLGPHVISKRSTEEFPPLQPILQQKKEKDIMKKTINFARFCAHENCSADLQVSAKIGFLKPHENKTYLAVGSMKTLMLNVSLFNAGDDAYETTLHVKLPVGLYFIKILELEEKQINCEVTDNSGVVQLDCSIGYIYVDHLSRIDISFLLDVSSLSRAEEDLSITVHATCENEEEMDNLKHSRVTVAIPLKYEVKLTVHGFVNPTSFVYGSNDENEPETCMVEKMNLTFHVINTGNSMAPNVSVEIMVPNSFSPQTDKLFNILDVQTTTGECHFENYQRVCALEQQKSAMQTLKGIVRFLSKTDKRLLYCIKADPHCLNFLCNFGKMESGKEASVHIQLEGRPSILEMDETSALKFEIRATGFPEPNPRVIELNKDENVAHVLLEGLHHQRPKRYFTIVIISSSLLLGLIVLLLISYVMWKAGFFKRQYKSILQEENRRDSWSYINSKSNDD", "T1 sequence (P05556 21-798)": "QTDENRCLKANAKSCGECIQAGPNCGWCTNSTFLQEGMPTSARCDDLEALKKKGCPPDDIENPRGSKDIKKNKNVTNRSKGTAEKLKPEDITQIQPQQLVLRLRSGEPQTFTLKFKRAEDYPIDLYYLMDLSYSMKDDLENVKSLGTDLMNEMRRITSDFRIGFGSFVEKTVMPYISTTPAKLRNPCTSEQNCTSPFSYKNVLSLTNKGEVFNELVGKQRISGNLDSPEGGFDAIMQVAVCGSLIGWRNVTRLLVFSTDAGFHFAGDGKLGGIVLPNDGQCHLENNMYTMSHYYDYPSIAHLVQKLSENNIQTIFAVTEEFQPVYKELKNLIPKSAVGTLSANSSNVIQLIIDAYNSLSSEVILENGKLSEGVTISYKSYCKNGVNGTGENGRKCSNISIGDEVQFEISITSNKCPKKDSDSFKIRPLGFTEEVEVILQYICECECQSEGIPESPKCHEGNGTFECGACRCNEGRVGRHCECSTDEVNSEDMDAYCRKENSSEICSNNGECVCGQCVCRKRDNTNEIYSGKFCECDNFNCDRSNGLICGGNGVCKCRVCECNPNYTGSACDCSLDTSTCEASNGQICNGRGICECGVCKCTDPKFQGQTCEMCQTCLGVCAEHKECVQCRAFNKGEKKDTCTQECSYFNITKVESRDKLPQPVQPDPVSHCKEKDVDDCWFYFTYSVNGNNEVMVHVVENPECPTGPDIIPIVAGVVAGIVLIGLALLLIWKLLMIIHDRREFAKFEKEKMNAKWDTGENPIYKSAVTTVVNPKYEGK", "assay": "Inhibition of VLA4-dependent adhesion to BSA-CS1", "format": "cell-based", "settings": "binding of BCECF-labelled Ramos cells to BSA-CS1 coated wells, 2 mM MnCl2; read-out: IC50", "description": "For example, the cell adhesion inhibitory activity of these compounds may be measured by determining the concentration of inhibitor required to block the binding of VLA-4-expressing cells to fibronectin- or CS1-coated plates. In this assay microtiter wells are coated with either fibronectin (containing the CS-1 sequence) or CS-1. If CS-1 is used, it must be conjugated to a carrier protein, such as bovine serum albumin, in order to bind to the wells. Once the wells are coated, varying concentrations of the test compound are then added together with appropriately labelled, VLA-4-expressing cells. Alternatively, the test compound may be added first and allowed to incubate with the coated wells prior to the addition of the cells. The cells are allowed to incubate in the wells for at least 30 minutes. Following incubation, the wells are emptied and washed. Inhibition of binding is measured by quantitating the fluorescence or radioactivity bound to the plate for each of the various concentrations of test compound, as well as for controls containing no test compound.\nVLA-4-expressing cells that may be utilized in this assay include Ramos cells, Jurkat cells, A375 melanoma cells, as well as human peripheral blood lymophocytes (PBLs). The cells used in this assay may be fluorescently or radioactively labelled.\nThis assay was used to assess the potency of VLA4-directed inhibitory compounds of this invention.\nWe dissolved BSA-SMCC (Pierce Chemical, Rockford, Ill.; Catalog #77115) in H2O at a concentration of 10 mg/mL. [SEQ ID NO:4]: […](“Cys-Tyr-CS1 peptide”), which we synthesized by conventional solid phase chemistry and purified by HPLC, was dissolved in 10 mM HEPES pH 5, 50 mM NaCl and 0.1 mM EDTA also at a concentration of 10 mg/mL. We then mixed 500 μL of BSA-SMCC, 250 μL of Cys-Tyr-CS1 peptide and 75 μL of 1 mM HEPES pH 7.5 and allowed the conjugation reaction to proceed for 30 minutes. We stopped the reaction by adding 1 μL of beta-mercaptoethanol. Samples were analyzed for cross-linking by SDS-PAGE.\nWe coated the wells of a Linbro titertek polystyrene 96-well flat bottom plate (Flow Laboratories, Maclean, Va.; catalog #76-231-05) with 100 μL of the above-described BSA-CS1 solution diluted to 1 μg/mL in 0.05 M NaHCO3 (15 mM NaHCO3, 35 mM Na2CO3) pH 9.2. Some wells were not coated with CS1 in order to assess non-specific cell binding (NSB). The plate was then incubated overnight at 4° C.\nFollowing this incubation, the contents of the wells were removed by inverting and blotting the plate. All of the wells were then blocked with 100 μL of 1% BSA in PBS, 0.02% NaN3, for a minimum of one hour at room temperature.\nRamos cells are grown, maintained and labelled in RPMI 1640 culture medium containing 1% BSA. Just prior to running the assay, we added 2′,7′-bis-(2-carboxyethyl)-5 (and -6) carboxyfluorescein acetoxymethyl ester (“BCECF-AM”; Molecular Probes Inc., Eugene, Oreg.; catalog #B-1150) to a final concentration of 2 μM to a culture of Ramos cells (4×10^6 cells/mL). We incubated the cells for 20 minutes at 37° C.\nFollowing labelling, the cells were washed twice in assay buffer (24 mM TRIS, 137 mM NaCl, 2.7 mM KCl, pH 7.4, containing 0.1% BSA and 2 mM glucose) to remove any cations originating from the culture medium. The cells were then resuspended in assay buffer to 4×10^6 cells/mL and 2 mM MnCl2 was added to upregulate VLA4 on the surface of the cells.\nImmediately prior to running the assay, we removed the BSA blocking solution from the 96-well plates and washed the wells with 100 μL of assay buffer. We then added to each well 25 μL of test cell adhesion inhibitory compound at 2× the final concentration and 25 μL of the labelled Ramos cells. […] Each concentration of compound was tested in triplicate. The compound and cells are allowed to incubate for 30 minutes at room temperature.", "note": "Square brackets hold non-standard residues; d marks the D form. Peptide text beside a SMILES is read from it. * marks the point of attachment. ξ: configuration not given here. PhAc = O=C(Cc1ccccc1)*; ξNva = CCCC(N)C(=O)O", "data": [{"compound": "CSCC[C@H](NC(=O)Cc1ccc(NC(=O)Nc2ccccc2C)cc1)C(=O)N[C@@H](CC(=O)O)C(=O)N[C@H](CC(N)=O)C(N)=O", "note": "[Compound 226]", "values": [{"measurement": "IC50", "result": "< 50", "unit": "nM"}]}, {"compound": "Cc1ccccc1NC(=O)Nc1ccc(CC(=O)N[C@H](C(=O)N[C@@H](CC(=O)O)C(=O)N[C@H](CC(N)=O)C(N)=O)[C@@H](C)O)cc1", "note": "[Compound 259]", "values": [{"measurement": "IC50", "result": "< 50", "unit": "nM"}]}, {"compound": "Cc1ccccc1NC(=O)Nc1ccc(CC(=O)N[C@@H](CCC(=O)O)C(=O)N[C@@H](CC(=O)O)C(=O)N[C@@H](Cc2c[nH]c3ccccc23)C(N)=O)cc1", "note": "[Compound 272]", "values": [{"measurement": "IC50", "result": "< 50", "unit": "nM"}]}, {"compound": "CSCC[C@H](NC(=O)Cc1ccc(NC(=O)Nc2ccccc2C)cc1)C(=O)N[C@@H](CC(=O)O)C(=O)N[C@H](C(N)=O)[C@@H](C)O", "note": "[Compound 224]", "values": [{"measurement": "IC50", "result": "< 50", "unit": "nM"}]}, {"compound": "COC(=O)C1CCCN1C(=O)C(NC(=O)C(CC(=O)O)NC(=O)C(CC(C)C)NC(=O)CCc1ccc(O)cc1)C(C)C", "note": "(stereo not shown) [Compound 39]", "values": [{"measurement": "IC50", "result": "> 10000", "unit": "nM"}]}, {"compound": "Cc1ccccc1NC(=O)Nc1ccc(CC(=O)N2CCC[C@H]2C(=O)N[C@@H](CCC(=O)O)C(=O)N[C@@H](CC(=O)O)C(N)=O)cc1", "note": "[Compound 312]", "values": [{"measurement": "IC50", "result": "< 50", "unit": "nM"}]}, {"compound": "Cc1ccccc1NC(=O)Nc1ccc(CC(=O)NC(CCC(N)=O)C(=O)NC(CC(=O)O)C(=O)NC(CO)C(N)=O)cc1", "note": "(stereo not shown) [Compound 307]", "values": [{"measurement": "IC50", "result": "< 50", "unit": "nM"}]}, {"compound": "CC(C)C[C@H](NC(=O)N1c2ccccc2CCc2ccccc21)C(=O)N[C@@H](CC(=O)O)C(=O)N[C@H](C(=O)O)C(C)C", "note": "[Compound 408]", "values": [{"measurement": "IC50", "result": "> 10000", "unit": "nM"}]}, {"compound": "CC(C)C[C@H](NC(=O)c1ccc(-c2ccccn2)s1)C(=O)N[C@@H](CC(=O)O)C(=O)N[C@H](C(=O)O)C(C)C", "note": "[Compound 407]", "values": [{"measurement": "IC50", "result": "> 10000", "unit": "nM"}]}, {"compound": "CC(C)CC(NC(=O)c1cc2ccccc2cn1)C(=O)NC(CC(=O)O)C(=O)NCC1CCCCC1", "note": "(stereo not shown) [Compound 11]", "values": [{"measurement": "IC50", "result": "> 10000", "unit": "nM"}]}, {"compound": "CC(C)C[C@H](NC(=O)c1ccc2ccccc2n1)C(=O)N[C@@H](CC(=O)O)C(=O)N[C@H](C(N)=O)C(C)C", "note": "[Compound 178]", "values": [{"measurement": "IC50", "result": "> 10000", "unit": "nM"}]}, {"compound": "Cc1ccccc1NC(=O)Nc1ccc(CC(=O)N[C@@H](CC(C)C)C(=O)N[C@@H](CC(=O)O)C(=O)N[C@H](C(N)=O)C(C)C)cc1", "note": "[Compound 232]", "values": [{"measurement": "IC50", "result": "< 50", "unit": "nM"}]}, {"compound": "CCn1cc(C(=O)N[C@@H](CC(C)C)C(=O)N[C@@H](CC(=O)O)C(=O)N[C@H](C(=O)O)C(C)C)c(=O)c2ccc(C)nc21", "note": "[Compound 403]", "values": [{"measurement": "IC50", "result": "> 10000", "unit": "nM"}]}, {"compound": "Cc1ccccc1NC(=O)Nc1ccc(CC(=O)N[C@@H](CC(C)C)C(=O)N[C@@H](CC(=O)O)C(=O)N[C@H](CO)C(N)=O)cc1", "note": "[Compound 240]", "values": [{"measurement": "IC50", "result": "< 50", "unit": "nM"}]}, {"compound": "Cc1ccccc1NC(=O)Nc1ccc(CC(=O)N[C@H](CC(C)C)C(=O)N[C@@H](CC(=O)O)C(=O)N[C@H](CC(N)=O)C(N)=O)cc1", "note": "[Compound 293]", "values": [{"measurement": "IC50", "result": "< 50", "unit": "nM"}]}, {"compound": "Cc1ccccc1NC(=O)Nc1ccc(CC(=O)N[C@H](CC(C)C)C(=O)N[C@@H](CC(=O)O)C(=O)N[C@@H](CC(C)C)C(N)=O)cc1", "note": "[Compound 287]", "values": [{"measurement": "IC50", "result": "< 50", "unit": "nM"}]}, {"compound": "Cc1ccccc1NC(=O)Nc1ccc(CC(=O)N[C@H](C(=O)N[C@@H](CC(=O)O)C(=O)N[C@H](CO)C(N)=O)[C@@H](C)O)cc1", "note": "[Compound 262]", "values": [{"measurement": "IC50", "result": "< 50", "unit": "nM"}]}, {"compound": "CNC(=O)[C@@H](CC(C)C)NC(=O)[C@H](CCC(=O)O)NC(=O)[C@@H]1CCCN1C(=O)Cc1ccc(NC(=O)Nc2ccccc2C)cc1", "note": "[Compound 414]", "values": [{"measurement": "IC50", "result": "50 to 10000", "unit": "nM"}]}, {"compound": "CC[C@H](C)[C@H](NC(=O)[C@H](CC(=O)O)NC(=O)[C@H](CC(C)C)NC(=O)Cc1ccc(NC(=O)Nc2ccccc2C)cc1)C(=O)O", "note": "[Compound 345]", "values": [{"measurement": "IC50", "result": "< 50", "unit": "nM"}]}, {"compound": "Cc1ccccc1NC(=O)Nc1ccc(CC(=O)N[C@@H](CCC(N)=O)C(=O)N[C@@H](CC(=O)O)C(=O)N[C@H](CC(C)C)C(N)=O)cc1", "note": "[Compound 300]", "values": [{"measurement": "IC50", "result": "< 50", "unit": "nM"}]}, {"compound": "CCCC(NC(=O)Cc1ccccc1)C(=O)N[C@@H](CC(=O)O)C(=O)N[C@H](C(=O)NC)C(C)C", "note": "(stereo partly drawn) [Compound 49] (PhAc-[ξNva]-Asp-Val-NHMe)", "values": [{"measurement": "IC50", "result": "> 10000", "unit": "nM"}]}, {"compound": "Cc1ccccc1NC(=O)Nc1ccc(CC(=O)N2CCC2C(=O)N[C@@H](CC(=O)O)C(=O)N[C@H](CC(C)C)C(=O)O)cc1", "note": "(stereo partly shown) [Compound 412]", "values": [{"measurement": "IC50", "result": "50 to 10000", "unit": "nM"}]}]}
